One block for each compound: values may come before it. *1 amine or outer side, *2 acyl side, *3 side chain or, on linkers, in order; H or OH if unused. Where a SMILES comes first, the peptide text is derived from it. Bridges are numbered along the chain shown (N, C = ends). [ ]: non-standard residue; d: D form. The star is where a group is joined. X2 = C=C(N[*:2])c1nc(-c2nc(-c3nc(C(=O)NCCC(=O)NCCOCCOCCCCCCCl)cs3)ccc2C(=O)[*:1])cs1; X1 = C=C(N[*:2])c1nc(-c2nc(-c3nc(C(=O)OC)cs3)ccc2C(=O)[*:1])cs1; Nle = CCCC[C@H](N)C(=O)O; Dhb = C/C=C(\N)C(=O)O; Dha = C=C(N)C(=O)O; Cam = NC(=O)C*
Tests used:
[1] = test system: NF-kB signaling pathway in THP-1 cells; experiment: Inhibition of NFkB reporter gene activity in THP1-XBlue stable cell line; type: cell-based, human
Description: (§1) FIG. 11(a) illustrates TL12 which is a lactazole-like binder of TLR10, retrosynthesis thereof, and amino acid building blocks used. FIG. 11(b) illustrates a binding affinity (KD value) to IRAK4 and an inhibition (IC50) by the synthesized thiopeptide. The half-life (τ1/2) in the human serum and the inhibition (IC50) of the NF-kB signaling pathway in THP-1 cells are also shown. These values were obtained by non-linear regression of the experimental data.: The shaded C in IR4 is hGln (which is a product of IAA alkylation of Cys, but is replaced by homoglutamine); the shaded M in IR15 is Nle (in which Met is replaced by Nle); and the shaded T in IR15 represents a Dhb residue. […] FIG. 11(c) illustrates the binding affinity (KD value) to TLR10 and the half-life (τ1/2) in the human serum.: The shaded C in TL1, TL8, and TL16 is hGln (a product of IAA alkylation of Cys, but is replaced by homoglutamine); the shaded M in TL8, TL11, TL12, TL13, and TL18 is Nle (in which Met is replaced by Nle); the shaded S in 8S of TL11 and TL12 represents a Dha residue; and the shaded S in 9S of TL12 represents an oxazole. […] FIG. 11(d) illustrates the results of a CAPA assay of IR1, IR15, and TP8. The assay was carried out in HEK293T cells.
(§2) Finally, the cell activity of the thiopeptide against IRAK4, which is an intracellular target protein localized in the cytoplasm and the cell nucleus, was examined. […]

[2] = Stability / reactivity towards glutathione (GSH), LC/MS; type: physicochemical; conditions: for reactivity with GSH, in words: increasing concentration of glutathione (GSH)
TNIK [3] = target: TNIK (Homo sapiens, UniProt Q9UKE5); experiment: Surface plasmon resonance (SPR) binding affinity to TNIK; conditions: saturated concentration of ATP (1 mM; 15-fold higher than KM)
Description: Surface plasmon resonance (SPR) was used to evaluate the binding affinity of the thiopeptide synthesized in Example 2 to TNIK.

HEK293H cells = experiment: Chloroalkane penetration assay (CAPA) in HEK293H cells; type: cell-based, human; conditions: chloroalkane-labeled derivatives
Method: (§3) The sub-confluent HCT116 cells were treated with the indicated compounds for 24 hours and the cellular levels of TNIK, TNIK pSer764 (autophosphorylation product), c-Myc, and Axin2 were analyzed by an immunoblotting method (FIG. 7(b)) and RT-qPCR (FIG. 7(c)).
Next, it was confirmed whether or not the obtained compound could also access an intracellular target protein (TNIK is localized in the cytoplasm and the cell nucleus) in a human cell model. First, a chloroalkane penetration assay (CAPA) was performed on 4 types (TP1-ct, TP8-ct, TP14-ct, and TP15-ct) out of the 6 types of chloroalkane-labeled thiopeptide derivatives shown in FIG. 5 in order to measure an uptake degree into the cytoplasm (Peraro, L.; Deprey, K. L.; Moser, M. K.; Zou, Z.; Ball, H. L.; Levine, B.; and Kritzer, J. A. Cell Penetration Profiling Using the Chloroalkane Penetration Assay. J. Am. Chem. Soc. 2018, 140, 11360-11369).

[4] = Metabolic stability in human serum (LC/MS); type: in vitro ADME; conditions: 37 °C
Method: The compounds were incubated with a human serum at 37 °C, and the amount of the residual test substance at various points in time was quantified by LC/MS with respect to an internal standard substance. […] Next, it was examined whether or not the half-lives of the compounds were affected by the reactivity of the Dha residue. The Dha residue may be conjugated with various serum thiols.
In addition, the metabolic stability of all of the 14 types of candidate thiopeptides was examined. The compound was incubated with the human serum at 37 °C, and the amount of the residual thiopeptide at various points in time was quantified by LC/MS with respect to the internal standard substance. The half-life of the thiopeptide for TLR10 was generally as long as 38.2 hours, and the thiopeptide was stable.

TNIK [5] = experiment: TNIK protein level in HCT116 cells (immunoblotting); type: cell-based, human
Method: as §3

TNIK pSer764 = experiment: Immunoblotting of TNIK pSer764 (TNIK autophosphorylation) in HCT116 cells; type: cell-based, human; conditions: 20 μM of TP15, 24 hours, immunoblotting
Method: as §3
Nat. Commun. 2016, 7, 12586).

TNIK mRNA = TNIK mRNA level in HCT116 cells (RT-qPCR); type: cell-based, human
Method: as §3

HEK293T cells = experiment: Chloroalkane penetration assay (CAPA) in HEK293T cells; type: cell-based, human; conditions: compared with Tat
Description: as §1, §2

TNIK (Homo sapiens, UniProt Q9UKE5), sequence (Q9UKE5 whole entry): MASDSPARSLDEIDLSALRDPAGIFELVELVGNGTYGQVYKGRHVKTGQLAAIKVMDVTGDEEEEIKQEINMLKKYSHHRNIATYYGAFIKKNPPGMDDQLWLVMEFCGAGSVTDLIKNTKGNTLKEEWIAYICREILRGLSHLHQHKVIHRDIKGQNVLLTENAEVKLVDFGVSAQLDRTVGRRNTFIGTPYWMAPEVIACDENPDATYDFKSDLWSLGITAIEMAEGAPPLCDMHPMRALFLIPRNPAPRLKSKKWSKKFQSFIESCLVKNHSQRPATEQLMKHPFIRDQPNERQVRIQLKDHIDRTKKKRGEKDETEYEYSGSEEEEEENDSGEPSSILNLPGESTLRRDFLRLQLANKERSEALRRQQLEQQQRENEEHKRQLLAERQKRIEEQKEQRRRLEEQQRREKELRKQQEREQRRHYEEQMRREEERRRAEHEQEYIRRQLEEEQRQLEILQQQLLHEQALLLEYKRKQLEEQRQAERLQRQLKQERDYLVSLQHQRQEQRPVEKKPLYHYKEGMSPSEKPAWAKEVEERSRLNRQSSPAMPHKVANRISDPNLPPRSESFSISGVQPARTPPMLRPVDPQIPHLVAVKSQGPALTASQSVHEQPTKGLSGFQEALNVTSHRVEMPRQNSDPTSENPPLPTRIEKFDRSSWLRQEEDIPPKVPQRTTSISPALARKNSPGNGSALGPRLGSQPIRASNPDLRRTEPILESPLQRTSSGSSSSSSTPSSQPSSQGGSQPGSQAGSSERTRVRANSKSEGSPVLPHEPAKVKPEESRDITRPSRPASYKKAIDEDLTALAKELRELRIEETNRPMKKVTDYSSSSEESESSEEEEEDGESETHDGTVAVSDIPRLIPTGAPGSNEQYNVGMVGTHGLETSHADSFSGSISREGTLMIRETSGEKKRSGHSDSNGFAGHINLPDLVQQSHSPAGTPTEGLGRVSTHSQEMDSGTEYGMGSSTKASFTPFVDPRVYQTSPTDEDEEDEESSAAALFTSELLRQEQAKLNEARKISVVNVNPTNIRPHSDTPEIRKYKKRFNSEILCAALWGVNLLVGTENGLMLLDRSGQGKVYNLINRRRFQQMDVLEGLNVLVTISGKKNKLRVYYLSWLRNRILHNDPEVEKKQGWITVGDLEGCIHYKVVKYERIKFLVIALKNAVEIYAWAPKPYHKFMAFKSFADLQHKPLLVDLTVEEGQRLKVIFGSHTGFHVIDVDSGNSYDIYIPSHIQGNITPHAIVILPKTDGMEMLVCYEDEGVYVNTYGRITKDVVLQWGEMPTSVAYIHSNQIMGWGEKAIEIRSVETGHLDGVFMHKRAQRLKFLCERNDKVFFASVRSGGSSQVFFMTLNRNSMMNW

SMILES: C=C1NC(=O)[C@H](CCCCN)NC(=O)[C@H](Cc2ccc(O)cc2)NC(=O)[C@H]([C@@H](C)CC)NC(=O)[C@H](CCCNC(=N)N)NC(=O)[C@H](CCCNC(=N)N)NC(=O)[C@H](CCCCN)NC(=O)[C@H](Cc2ccccc2)NC(=O)[C@H](CC(C)C)NC(=O)[C@H](CCSC)NC(=O)[C@H](CO)NC(=O)[C@H](Cc2c[nH]c3ccccc23)NC(=O)c2ccc(-c3nc(C(=O)NCCC(=O)NCCOCCOCCCCCCCl)cs3)nc2-c2csc1n2 [IR1-ct] (WSMLFKRRIYK; linker N-C via X2)
inhibition of NFkB reporter gene activity, in words [1]: significant inhibition

reactivity with GSH, in words [2]: Dha11 and Dha12 in TP1 react with GSH
cytoplasmic uptake (CAPA), in words (HEK293H cells): efficient cytoplasmic translocation
SMILES: C=C1NC(=O)C(=C)NC(=O)[C@H](CCCCN)NC(=O)[C@H](CC(C)C)NC(=O)[C@H]([C@@H](C)O)NC(=O)[C@H](CCCCN)NC(=O)[C@H](Cc2ccc(O)cc2)NC(=O)[C@H]([C@@H](C)CC)NC(=O)[C@H](Cc2ccccc2)NC(=O)CNC(=O)[C@H](Cc2c[nH]c3ccccc23)NC(=O)c2ccc(-c3nc(C(=O)OC)cs3)nc2-c2csc(n2)C(=C)NC(=O)CNC1=O [TP1] (WGFIYKTLK[Dha][Dha]G; linker N-C via X1)
binding to TNIK in the presence of ATP (TNIK [3]): bonded to TNIK in the presence of the saturated concentration of ATP

SMILES: C=C1NC(=O)C(=C)NC(=O)[C@H](CCCCN)NC(=O)[C@H](CC(C)C)NC(=O)[C@H]([C@@H](C)O)NC(=O)[C@H](CCCCN)NC(=O)[C@H](Cc2ccc(O)cc2)NC(=O)[C@H]([C@@H](C)CC)NC(=O)[C@H](Cc2ccccc2)NC(=O)CNC(=O)[C@H](Cc2c[nH]c3ccccc23)NC(=O)c2ccc(-c3nc(C(=O)NCCC(=O)NCCOCCOCCCCCCCl)cs3)nc2-c2csc(n2)C(=C)NC(=O)CNC1=O [TP1-ct] (WGFIYKTLK[Dha][Dha]G; linker N-C via X2)
cytoplasmic uptake (CAPA), in words (HEK293H cells): taken up into HEK293H cells at a concentration of a single-digit μM

SMILES: C=C1NC(=O)/C(=C/C)NC(=O)[C@H](Cc2c[nH]c3ccccc23)NC(=O)[C@H](Cc2c[nH]cn2)NC(=O)[C@H](Cc2c[nH]c3ccccc23)NC(=O)[C@H]([C@@H](C)O)NC(=O)[C@H]([C@@H](C)CC)NC(=O)[C@H](Cc2ccccc2)NC(=O)[C@H](CCC(N)=O)NC(=O)[C@H](CCCNC(=N)N)NC(=O)[C@H](CCCCN)NC(=O)[C@H](CCCC)NC(=O)[C@H](CO)NC(=O)[C@H](Cc2c[nH]c3ccccc23)NC(=O)c2ccc(-c3nc(C(=O)NCCC(=O)NCCOCCOCCCCCCCl)cs3)nc2-c2csc1n2 [IR15-ct] (WS[Nle]KRQFITWHW[Dhb]; linker N-C via X2)
inhibition of NFkB reporter gene activity, in words [1]: significant inhibition

half-life (τ1/2) in human serum [4]: 88 h
stability in human serum, in words [4]: good stability
SMILES: C=C1NC(=O)[C@H](CO)NC(=O)[C@H](CSCC(N)=O)NC(=O)CNC(=O)[C@H](Cc2ccc(O)cc2)NC(=O)[C@H](C)NC(=O)[C@H](CO)NC(=O)[C@H](CC(=O)O)NC(=O)CNC(=O)[C@H](CC(C)C)NC(=O)[C@H](Cc2c[nH]c3ccccc23)NC(=O)[C@H](Cc2c[nH]c3ccccc23)NC(=O)c2ccc(-c3nc(C(=O)OC)cs3)nc2-c2csc1n2 [TP4] (WWLGDSAYGC(Cam)S; linker N-C via X1)

SMILES: C=C1NC(=O)c2csc(n2)[C@H]([C@@H](C)O)NC(=O)[C@H](C)NC(=O)[C@H]([C@@H](C)CC)NC(=O)[C@H](CCCNC(=N)N)NC(=O)CNC(=O)[C@H](CCCNC(=N)N)NC(=O)[C@H]([C@@H](C)O)NC(=O)[C@H](CCCNC(=N)N)NC(=O)[C@H]([C@@H](C)CC)NC(=O)[C@H]([C@@H](C)O)NC(=O)[C@H](Cc2c[nH]c3ccccc23)NC(=O)c2ccc(-c3nc(C(=O)NCCC(=O)NCCOCCOCCCCCCCl)cs3)nc2-c2csc1n2 [TP15-ct]
cytoplasmic uptake (CAPA), in words (HEK293H cells): taken up into HEK293H cells at a concentration of a single-digit μM

SMILES: OC1CCC(Oc2cccc3cnc(Nc4ccc5nc[nH]c5c4)nc23)CC1 (centres unmarked) [NCB0846, reference compound]
overall expression of TNIK, protein level (TNIK [5]): down-regulated
level of TNIK pSer764 (TNIK pSer764): the same
overall expression of TNIK, mRNA level (TNIK mRNA): down-regulated

SMILES: C=C1NC(=O)CNC(=O)[C@H](CCCNC(=N)N)NC(=O)[C@H](Cc2ccc(O)cc2)NC(=O)[C@H](CC(C)C)NC(=O)[C@H](CO)NC(=O)[C@H](CCCCN)NC(=O)[C@H](CC(N)=O)NC(=O)CNC(=O)[C@H](Cc2ccccc2)NC(=O)[C@H](Cc2c[nH]c3ccccc23)NC(=O)[C@H](Cc2c[nH]c3ccccc23)NC(=O)c2ccc(-c3nc(C(=O)NCCC(=O)NCCOCCOCCCCCCCl)cs3)nc2-c2csc1n2 [TP14-ct] (WWFGNKSLYRG; linker N-C via X2)
cytoplasmic uptake (CAPA), in words (HEK293H cells): taken up into HEK293H cells at a concentration of a single-digit μM

uptake into HEK293T cells relative to Tat (HEK293T cells; in the presence of serum): 2 fold
SMILES: C=C1NC(=O)/C(=C/C)NC(=O)[C@H](Cc2c[nH]c3ccccc23)NC(=O)[C@H](Cc2c[nH]cn2)NC(=O)[C@H](Cc2c[nH]c3ccccc23)NC(=O)[C@H]([C@@H](C)O)NC(=O)[C@H]([C@@H](C)CC)NC(=O)[C@H](Cc2ccccc2)NC(=O)[C@H](CCC(N)=O)NC(=O)[C@H](CCCNC(=N)N)NC(=O)[C@H](CCCCN)NC(=O)[C@H](CCCC)NC(=O)[C@H](CO)NC(=O)[C@H](Cc2c[nH]c3ccccc23)NC(=O)c2ccc(-c3nc(C(=O)OC)cs3)nc2-c2csc1n2 [IR15] (WS[Nle]KRQFITWHW[Dhb]; linker N-C via X1)
uptake into cytoplasm of HEK293T cells, in words (HEK293T cells): taken up into the cytoplasm of HEK293T cells much more efficiently than Tat

residual amount in the presence of GSH ([2]; 10 mM GSH, after 24 hours): > 95%
reactivity with GSH, in words [2]: stable
stability in human serum, in words [4]: short half-life
cytoplasmic uptake (CAPA), in words (HEK293H cells): efficient cytoplasmic translocation
SMILES: C=C1NC(=O)CNC(=O)[C@H](CCCNC(=N)N)NC(=O)[C@H](Cc2ccc(O)cc2)NC(=O)[C@H](CC(C)C)NC(=O)[C@H](CO)NC(=O)[C@H](CCCCN)NC(=O)[C@H](CC(N)=O)NC(=O)CNC(=O)[C@H](Cc2ccccc2)NC(=O)[C@H](Cc2c[nH]c3ccccc23)NC(=O)[C@H](Cc2c[nH]c3ccccc23)NC(=O)c2ccc(-c3nc(C(=O)OC)cs3)nc2-c2csc1n2 [TP14] (WWFGNKSLYRG; linker N-C via X1)
binding to TNIK in the presence of ATP (TNIK [3]): bonded to TNIK in the presence of the saturated concentration of ATP

half-life (τ1/2) in human serum [4]: 14 h
stability in human serum, in words [4]: good stability
SMILES: C=C1NC(=O)CNC(=O)[C@H](CC(N)=O)NC(=O)[C@H](CC(C)C)NC(=O)CNC(=O)[C@H](CCCCN)NC(=O)[C@H](C)NC(=O)[C@H]([C@@H](C)CC)NC(=O)[C@H](CO)NC(=O)[C@H](Cc2c[nH]c3ccccc23)NC(=O)[C@H](C)NC(=O)[C@H](Cc2c[nH]c3ccccc23)NC(=O)c2ccc(-c3nc(C(=O)OC)cs3)nc2-c2csc1n2 [TP8] (WAWSIAKGLNG; linker N-C via X1)
binding to TNIK in the presence of ATP (TNIK [3]): bonded to TNIK in the presence of the saturated concentration of ATP

Source: patent US20260365699A1, “Compound Production Method” (The University of Tokyo, priority 2022, published 2026)
